# Values joined by “and” are separate entries in the source; they are usually repeats but may differ in a detail not shown here. Equal entries are not always repeated.
# Tests used:
# (His)6-GmACBP4.1_33–354 [1] = assay: Isothermal titration calorimetry of acyl-CoA binding (WT protein); design: species or system soybean; settings: ITC at 25°C; 15 μM protein titrated with 200 μM acyl-CoA; mean ± SD, three experiments; read-out: KD, dissociation constant
# Experimental: ITC was conducted with a MicroCal iTC200 system (GE Healthcare) at 25°C in 10 mM sodium phosphate (pH 7) by 20 injections of 1.8-μL acyl-CoAs (200 μM; Avanti Polar Lipids Inc., Alabaster, AL, USA) into the sample cell with 15 μM purified (His)6-GmACBP4.1. Each injection lasted 4 s at 150-s intervals with a stirring speed of 1,000 rpm. Nonspecific heat effects were estimated and corrected after saturation. The baseline was adjusted, and the data were fitted into a single-site binding model using the Origin version 7.0 software (OriginLab).
# Supplemental Table 1. Binding constants and thermodynamic parameters for (His)6-GmACBP4.133–354 interaction with acyl-CoAs. (Supports Figure 5A) […]
# Isothermal titration calorimetry analysis was performed by titration of 250 μL of 15 μM (His)6-GmACBP4.133–354 with […]
# from three independent experiments. n, stoichiometry (number of ligand sites per protein); KD, dissociation constant; ∆H, enthalpy change; −T∆S, entropy change; ∆G, Gibbs free energy.
# [2] = molecular target: (His)6-GmACBP4.1_33–354 (WT or Y135A mutant); assay: Protein–lipid bead binding assay with competing acyl-CoA (PA beads); design: species or system soybean
# [3] = tested on: GmACBP4.1_33–354 interaction with VLXB:StrepII; assay: Strep-Tactin pull-down assay with supplemented acyl-CoAs; assay type: binding, soybean; settings: acyl-CoA 12.5–100 μM, versus control without acyl-CoA
# [4] = tested on: GmACBP4.1_33–354 interaction with GmPLDα1:StrepII; assay: as above; assay type: binding, soybean; settings: acyl-CoA 12.5–100 μM, versus control without acyl-CoA
# Description: Figure 6 Specific acyl-CoA species facilitate GmACBP4 interaction with VLXB and GmPLDα1. A, Strep-Tactin pull-down assays. […] (His)6-GmACBP4.1_33–354 were detected in eluates by immunoblotting using anti-ACBP3 antibodies. […] Input lanes represent 1% protein. Arrowheads indicate target bands of 40-kD (His)6-GmACBP4.1_33–354 (apparent: 50 kD). The bound protein fraction was quantified densitometrically. […] B–C, Strep-Tactin pull-down assays with supplemented acyl-CoAs. […] Input lanes represent 5% proteins in (B) or 10% proteins in (C). Arrowheads indicate target bands of 40-kD (His)6-GmACBP4.1_33–354 (apparent: 50kD).
# Strep-Tactin pull-down assays were performed using Strep-Tactin XT resins (IBA) following the manufacturer’s instructions. Briefly, 5 μL of resins with/without prebound VLXB:StrepII or GmPLDα1:StrepII (0.5 μM) were agitated with GmACBP4.1_33–354 (0.5 μM) and acyl-CoAs (0, 12.5, 25, 50, and 100 μM) in Buffer W containing 0.1 M Tris–HCl (pH 7), 0.15 M NaCl, 1 mM EDTA and 0.05% (w/v) Triton X-100 at 4°C for 2 h. After three washes in Buffer W, bound proteins were eluted in Buffer W with 50 mM biotin, and analyzed by immunoblotting using anti-ACBP3.1 antibodies.
# AtACBP1 = molecular target: AtACBP1; design: method as in Xue et al., 2014; settings: ref Xue et al., 2014; cited from earlier work
# GmACBP4.1_33–354 (WT) = molecular target: T1, GmACBP4.1_33–354 (WT) (Glycine max, UniProt I1KAV2); settings: SEM, n = 3
# T1 construct: gene LOC100816670
# T1 sequence (I1KAV2 33-354): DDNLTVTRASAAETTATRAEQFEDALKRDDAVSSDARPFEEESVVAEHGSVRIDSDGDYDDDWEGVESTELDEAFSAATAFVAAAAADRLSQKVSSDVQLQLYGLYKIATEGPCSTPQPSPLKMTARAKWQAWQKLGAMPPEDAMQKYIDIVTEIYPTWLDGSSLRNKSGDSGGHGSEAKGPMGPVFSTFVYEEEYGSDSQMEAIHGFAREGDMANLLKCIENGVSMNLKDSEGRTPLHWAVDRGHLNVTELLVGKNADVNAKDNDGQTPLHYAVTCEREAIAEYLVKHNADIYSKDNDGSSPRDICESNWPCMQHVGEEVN
# Description: The liposome-associated protein fraction was quantified densitometrically. […] D, Protein–lipid bead binding assays with competing acyl-CoAs. […] Bound and unbound WT (left panel) and Y135A (middle panel) were detected by immunoblotting using anti-GsACBP3 antibodies. Input lanes represent 50% protein. Arrowheads indicate target bands. The PA-bound protein fraction was quantified densitometrically. The half maximal inhibitory concentration (IC50) of the WT is the mean ± SEM from three independent experiments.
# To validate this assumption, the binding of the WT and Y135A mutant to PA beads was investigated in the presence of C18:2-CoA (Figure 5, D).
# After three washes in the same buffer, bound proteins were eluted with 6× Laemmli sample buffer. Protein binding on filter strips, liposomes, and PA beads was detected by immunoblotting using anti-ACBP3.1 antibodies.
# (His)6-GmACBP3.1_33–346 = assay: Protein–lipid overlay assay; assay type: binding, soybean; settings: commercial strips with 15 neutral and polar lipids; 0.5 μg mL−1 protein
# (His)6-GmACBP4.1_33–354 [5] = assay: Protein–lipid overlay assay; assay type: binding, soybean; settings: commercial strips and PA-spotted nitrocellulose strips; 0.5 μg mL−1 protein
# (His)6-GmACBP4.1_33–354 [6] = assay: Liposome association assay for PA binding; design: species or system soybean; settings: PA:di-16:0-PC liposomes, 0–100% (w/w) PA
# [7] = tested on: AtACBP2 interaction with LYSOPL2; design: method as in Miao et al., 2019; settings: ref Miao et al., 2019; cited from earlier work
molecule,measurement,setting,value
"CCCCC/C=C\C/C=C\CCCCCCCC(=O)SCCNC(=O)CCNC(=O)[C@H](O)C(C)(C)COP(=O)(O)OP(=O)(O)OC[C@H]1O[C@@H](n2cnc3c(N)ncnc32)[C@H](O)[C@@H]1OP(=O)(O)O [C18:2-CoA, linoleoyl-CoA]",Kd,(His)6-GmACBP4.1_33–354 [1],920 nM and 900 to 1200 nM
same,IC50,"[2]; WT protein 2.5 μg mL−1, 1 μM PA beads, competing C18:2-CoA, mean ± SEM, three experiments, read-out: half maximal inhibitory concentration (IC50) for PA-bound WT fraction",22.9 µM
same,effect on Y135A binding to PA beads,"[2]; Y135A mutant, compared with WT",less affected
same,increase in WT binding with VLXB:StrepII,[3],up to four-fold
same,increase in WT binding with GmPLDα1:StrepII,[4],did not influence
same,Kd,AtACBP1,400 to 800 nM
same,IC50,GmACBP4.1_33–354 (WT),22.9 µM
CCCCCCCCCCCCCCCC(=O)OCC(COP(=O)(O)O)OC(=O)CCCCCCCCCCCCCCC (stereo not drawn) [di-16:0-PA],binding on lipid filter strips,(His)6-GmACBP3.1_33–346,sole ligand
same,binding on lipid filter strips,(His)6-GmACBP4.1_33–354 [5],sole ligand
same,descending order of affinity to the WT (liposome association),(His)6-GmACBP4.1_33–354 [6],di-16:0-PA ≈ di-18:1-PA > di-18:0-PA > di-14:0-PA
same,descending order of affinity to the WT (liposome association),(His)6-GmACBP4.1_33–354 [6]; listed as 32:0-PA,relatively higher affinity
lysophosphatidylcholine,fold higher affinity of AtACBP2 for LYSOPL2 interaction when complexed with the ligand,[7],10 fold
